Laboratory results published in ChEMBL document CHEMBL4392837, “Identification of highly potent and selective MMP2 inhibitors addressing the S1' subsite with d-proline-based compounds” (Bioorg Med Chem, 2019).
Activity calls are given as the source filed them. The calls are words filed in the database; no cut-off is given here.

Species: Homo sapiens
Assay: Inhibition of cell migration of human A375M6 cells at 1 to 10 uM incubated for 6 hrs by Boyden chambers assay
Assay type: functional

`CNC(=O)[C@H](Cc1c[nH]c2ccccc12)NC(=O)[C@@H](CC(=O)NO)CC(C)C` was tested, and the inhibition was “Active”.
